From US10640506B2, “Cyclobutyl substituted pyrrolopyridine and pyrrolopyrimidines derivatives as JAK inhibitors” (Incyte Corporation, priority 2010, dated 2020) come the findings set out here.

One experiment addresses T1, JAK2 (a.a. 828-1132) (Homo sapiens, UniProt O60674).
T1 construct: JAK2 (a.a. 828-1132); His tag (N)
Description: In vitro JAK kinase assay (HTRF, phosphorylation of biotinylated peptide), JAK2. The settings on record: Table F; 1 mM ATP. The class given is biochemical. A digest of the protocol:
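His-tagged catalytic domains of human JAK1 (a.a. 837-1142) and JAK2 (a.a. 828-1132), baculovirus-expressed, phosphorylate a biotinylated peptide for 1 hour at room temperature. Stopped with EDTA; detected by HTRF using SA-APC and Eu-Py20 antibody after 40 min binding; values binned as ranges.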
In general terms: TR-FRET usually uses a lanthanide donor and a delayed reading to cut background.

Experiment [1] concerns the target human JAK1 (a.a. 837-1142) (Homo sapiens, UniProt P23458). Nature of the experiment: In vitro JAK kinase assay (HTRF, phosphorylation of biotinylated peptide), JAK1. It is filed as biochemical. The settings on record: Table F; 1 mM ATP. Put shortly:
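His-tagged human JAK1 catalytic domain (a.a. 837-1142), baculovirus/insect-cell expressed, phosphorylates a biotinylated peptide for 1 h at room temperature. Reaction stopped with EDTA; product detected by HTRF (SA-APC, Eu-Py20, 40 min binding). IC50 reported as ranges.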

Bounds are passed on as bounds.

By IC50 is commonly meant the concentration at which inhibition is half-maximal.

Sequence of human JAK1 (a.a. 837-1142) (P23458 849-1154): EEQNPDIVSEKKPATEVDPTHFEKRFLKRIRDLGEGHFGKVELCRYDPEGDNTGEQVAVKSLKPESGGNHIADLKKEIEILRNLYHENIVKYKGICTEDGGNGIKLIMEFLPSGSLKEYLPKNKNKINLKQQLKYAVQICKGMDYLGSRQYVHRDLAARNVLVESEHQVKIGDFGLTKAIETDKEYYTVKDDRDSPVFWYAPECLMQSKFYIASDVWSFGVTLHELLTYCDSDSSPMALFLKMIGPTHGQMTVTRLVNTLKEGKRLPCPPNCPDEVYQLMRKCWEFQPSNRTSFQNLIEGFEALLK
T1 sequence (O60674 828-1132): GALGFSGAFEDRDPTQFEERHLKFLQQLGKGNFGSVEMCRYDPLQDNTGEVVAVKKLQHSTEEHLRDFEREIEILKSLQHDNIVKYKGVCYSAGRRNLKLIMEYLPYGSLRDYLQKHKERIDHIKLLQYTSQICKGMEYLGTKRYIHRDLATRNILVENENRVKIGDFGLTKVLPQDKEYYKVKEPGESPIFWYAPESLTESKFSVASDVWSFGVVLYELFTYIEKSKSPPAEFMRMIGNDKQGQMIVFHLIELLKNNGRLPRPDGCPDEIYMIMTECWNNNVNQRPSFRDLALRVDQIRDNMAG

Take `C[C@H](NC(=O)N1CCN([C@H]2C[C@](CC#N)(n3cc(-c4ncnc5[nH]ccc45)cn3)C2)CC1)C(F)(F)F` [Example 114, 4-{trans-3-(cyanomethyl)-3-[4-(7H-pyrrolo[2,3-d]pyrimidin-4-yl)-1H-pyrazol-1-yl]cyclobutyl}-N-[(1S)-2,2,2-trifluoro-1-methylethyl]piperazine-1-carboxamide]: the results for the 50% inhibitory concentration (IC50) (on JAK2 (a.a. 828-1132); in experiment [1]) were > 100 nM and < 10 nM, respectively.

On to `CC[C@H](NC(=O)N1CCN([C@H]2C[C@](CC#N)(n3cc(-c4ncnc5[nH]ccc45)cn3)C2)CC1)C(F)(F)F` [Example 115, 4-{trans-3-(cyanomethyl)-3-[4-(7H-pyrrolo[2,3-d]pyrimidin-4-yl)-1H-pyrazol-1-yl]cyclobutyl}-N-[(1S)-1-(trifluoromethyl)propyl]piperazine-1-carboxamide], for which the values for the IC50 (at JAK2 (a.a. 828-1132); in experiment [1]) were > 100 nM and < 10 nM, respectively.

For the molecule `N#CC[C@]1(n2cc(-c3ncnc4[nH]ccc34)cn2)C[C@H](N2CCN(C(=O)N3CCC[C@@H]3C(F)(F)F)CC2)C1` [Example 116, [trans-1-[4-(7H-pyrrolo[2,3-d]pyrimidin-4-yl)-1H-pyrazol-1-yl]-3-(4-{[(2R)-2-(trifluoromethyl)pyrrolidin-1-yl]carbonyl}piperazin-1-yl)cyclobutyl]acetonitrile], the IC50 on JAK2 (a.a. 828-1132) was > 100 nM; in experiment [1], 25 to 100 nM.

In the case of `N#CC[C@]1(n2cc(-c3ncnc4[nH]ccc34)cn2)C[C@H](N2CCN(C(=O)N3CCC[C@H]3C(F)(F)F)CC2)C1` [Example 117, [trans-1-[4-(7H-pyrrolo[2,3-d]pyrimidin-4-yl)-1H-pyrazol-1-yl]-3-(4-{[(2S)-2-(trifluoromethyl)pyrrolidin-1-yl]carbonyl}piperazin-1-yl)cyclobutyl]acetonitrile], the IC50 against JAK2 (a.a. 828-1132) is > 100 nM; in experiment [1], 25 to 100 nM.

For `CN(C)/C(=N\C#N)N1CCN([C@H]2C[C@](CC#N)(n3cc(-c4ncnc5[nH]ccc45)cn3)C2)CC1` [Example 118, N′-cyano-4-{trans-3-(cyanomethyl)-3-[4-(7H-pyrrolo[2,3-d]pyrimidin-4-yl)-1H-pyrazol-1-yl]cyclobutyl}-N,N-dimethylpiperazine-1-carboximidamide], the results for the IC50 (against JAK2 (a.a. 828-1132); in experiment [1]) were 25 to 100 nM and 10 to 25 nM, respectively.

On to `CS(=O)(=O)N1CCN([C@H]2C[C@](CC#N)(n3cc(-c4ncnc5[nH]ccc45)cn3)C2)CC1` [Example 119, {trans-3-[4-(methylsulfonyl)piperazin-1-yl]-1-[4-(7H-pyrrolo[2,3-d]pyrimidin-4-yl)-1H-pyrazol-1-yl]cyclobutyl}acetonitrile], for which the IC50 against JAK2 (a.a. 828-1132) is 10 to 25 nM; in experiment [1], < 10 nM.

Regarding `CC(C)OC(=O)N1CCN([C@H]2C[C@](CC#N)(n3cc(-c4ncnc5[nH]ccc45)cn3)C2)CC1` [Example 120, isopropyl 4-{trans-3-(cyanomethyl)-3-[4-(7H-pyrrolo[2,3-d]pyrimidin-4-yl)-1H-pyrazol-1-yl]cyclobutyl}piperazine-1-carboxylate], the IC50 was 25 to 100 nM on JAK2 (a.a. 828-1132) and < 10 nM in experiment [1].

For `CC(C)(C)NCc1cc(OC2CCN([C@H]3C[C@](CC#N)(n4cc(-c5ncnc6[nH]ccc56)cn4)C3)CC2)nc(C(F)(F)F)c1` [Example 127, {trans-3-(4-{[4-[(tert-butylamino)methyl]-6-(trifluoromethyl)pyridin-2-yl]oxy}piperidin-1-yl)-1-[4-(7H-pyrrolo[2,3-d]pyrimidin-4-yl)-1H-pyrazol-1-yl]cyclobutyl}acetonitrile], the IC50 against JAK2 (a.a. 828-1132) is 25 to 100 nM; in experiment [1], < 10 nM.

On to `CC(C)(C)NCc1cc(OC2CCN([C@H]3C[C@@](CC#N)(n4cc(-c5ncnc6[nH]ccc56)cn4)C3)CC2)nc(C(F)(F)F)c1` [Example 128, {cis-3-(4-{[4-[(tert-butylamino)methyl]-6-(trifluoromethyl)pyridin-2-yl]oxy}piperidin-1-yl)-1-[4-(7H-pyrrolo[2,3-d]pyrimidin-4-yl)-1H-pyrazol-1-yl]cyclobutyl}acetonitrile], for which the IC50 on JAK2 (a.a. 828-1132) is > 100 nM; in experiment [1], 25 to 100 nM.

For `N#CC[C@]1(n2cc(-c3ncnc4[nH]ccc34)cn2)C[C@H](N2CCC(Oc3cc(CN)cc(C(F)(F)F)n3)CC2)C1` [Example 129, {trans-3-(4-{[4-(aminomethyl)-6-(trifluoromethyl)pyridin-2-yl]oxy}piperidin-1-yl)-1-[4-(7H-pyrrolo[2,3-d]pyrimidin-4-yl)-1H-pyrazol-1-yl]cyclobutyl}acetonitrile], the half-maximal inhibitory concentration (IC50) is 25 to 100 nM on JAK2 (a.a. 828-1132) and < 10 nM in experiment [1].

For the molecule `CN(C)Cc1cc(OC2CCN([C@H]3C[C@](CC#N)(n4cc(-c5ncnc6[nH]ccc56)cn4)C3)CC2)nc(C(F)(F)F)c1` [Example 130, {trans-3-(4-{[4-[(dimethylamino)methyl]-6-(trifluoromethyl)pyridin-2-yl]oxy}piperidin-1-yl)-1-[4-(7H-pyrrolo[2,3-d]pyrimidin-4-yl)-1H-pyrazol-1-yl]cyclobutyl}acetonitrile], the IC50 is > 100 nM against JAK2 (a.a. 828-1132) and < 10 nM in experiment [1].

`CCNCc1cc(OC2CCN([C@H]3C[C@](CC#N)(n4cc(-c5ncnc6[nH]ccc56)cn4)C3)CC2)nc(C(F)(F)F)c1` [Example 131, {trans-3-(4-{[4-[(ethylamino)methyl]-6-(trifluoromethyl)pyridin-2-yl]oxy}piperidin-1-yl)-1-[4-(7H-pyrrolo[2,3-d]pyrimidin-4-yl)-1H-pyrazol-1-yl]cyclobutyl}acetonitrile]: the IC50 against JAK2 (a.a. 828-1132) is 25 to 100 nM; in experiment [1], < 10 nM.

Regarding `CNCc1cc(OC2CCN([C@H]3C[C@](CC#N)(n4cc(-c5ncnc6[nH]ccc56)cn4)C3)CC2)nc(C(F)(F)F)c1` [Example 132, {trans-3-(4-{[4-[(methylamino)methyl]-6-(trifluoromethyl)pyridin-2-yl]oxy}piperidin-1-yl)-1-[4-(7H-pyrrolo[2,3-d]pyrimidin-4-yl)-1H-pyrazol-1-yl]cyclobutyl}acetonitrile], the concentration for half-maximal inhibition (IC50) on JAK2 (a.a. 828-1132) is 25 to 100 nM; in experiment [1] it was < 10 nM.

`CN(C)Cc1cc(C(=O)N2CCN([C@H]3C[C@@](CC#N)(n4cc(-c5ncnc6[nH]ccc56)cn4)C3)CC2)cc(C(F)(F)F)c1` [Example 135, {cis-3-{4-[3-[(dimethylamino)methyl]-5-(trifluoromethyl)benzoyl]piperazin-1-yl}-1-[4-(7H-pyrrolo[2,3-d]pyrimidin-4-yl)-1H-pyrazol-1-yl]cyclobutyl}acetonitrile]: the IC50 against JAK2 (a.a. 828-1132) was > 100 nM; in experiment [1], 10 to 25 nM.

As to `CN(C)Cc1cc(C#N)cc(C(=O)N2CCN([C@H]3C[C@](CC#N)(n4cc(-c5ncnc6[nH]ccc56)cn4)C3)CC2)c1` [Example 136, 3-[(4-{trans-3-(cyanomethyl)-3-[4-(7H-pyrrolo[2,3-d]pyrimidin-4-yl)-1H-pyrazol-1-yl]cyclobutyl}piperazin-1-yl)carbonyl]-5-[(dimethylamino)methyl]benzonitrile], the IC50 against JAK2 (a.a. 828-1132) was 25 to 100 nM; in experiment [1] it was < 10 nM.

Consider `CN(C)Cc1cc(C#N)cc(OC2CCN([C@H]3C[C@](CC#N)(n4cc(-c5ncnc6[nH]ccc56)cn4)C3)CC2)c1` [Example 137, 3-[(1-{trans-3-(cyanomethyl)-3-[4-(7H-pyrrolo[2,3-d]pyrimidin-4-yl)-1H-pyrazol-1-yl]cyclobutyl}piperidin-4-yl)oxy]-5-[(dimethylamino)methyl]benzonitrile], for which the figures for the IC50 (on JAK2 (a.a. 828-1132); in experiment [1]) were > 100 nM and 10 to 25 nM, respectively.

For `CN(C)Cc1cc(OC2CCN([C@H]3C[C@](CC#N)(n4cc(-c5ncnc6[nH]ccc56)cn4)C3)CC2)cc(C(F)(F)F)c1` [Example 138, {trans-3-{4-[3-[(Dimethylamino)methyl]-5-(trifluoromethyl)phenoxy]piperidin-1-yl}-1-[4-(7H-pyrrolo[2,3-d]pyrimidin-4-yl)-1H-pyrazol-1-yl]cyclobutyl}acetonitrile], the IC50 at JAK2 (a.a. 828-1132) was > 100 nM; in experiment [1] it was 10 to 25 nM.

With `CCN(CC)Cc1cc(OC2CCN([C@H]3C[C@](CC#N)(n4cc(-c5ncnc6[nH]ccc56)cn4)C3)CC2)cc(C(F)(F)F)c1` [Example 139, {trans-3-{4-[3-[(diethylamino)methyl]-5-(trifluoromethyl)phenoxy]piperidin-1-yl}-1-[4-(7H-pyrrolo[2,3-d]pyrimidin-4-yl)-1H-pyrazol-1-yl]cyclobutyl}acetonitrile], the IC50 is > 100 nM against JAK2 (a.a. 828-1132) and < 10 nM in experiment [1].

In the case of `CN(C)Cc1cc(OC2CCN([C@H]3C[C@](CC#N)(n4cc(-c5ncnc6[nH]ccc56)cn4)C3)CC2)cc(C(F)F)c1` [Example 140, {trans-3-(4-{3-(difluoromethyl)-5-[(dimethylamino)methyl]phenoxy}piperidin-1-yl)-1-[4-(7H-pyrrolo[2,3-d]pyrimidin-4-yl)-1H-pyrazol-1-yl]cyclobutyl}acetonitrile], the IC50 is > 100 nM at JAK2 (a.a. 828-1132) and 10 to 25 nM in experiment [1].

Consider `CN(C)Cc1cc(Cl)nc(OC2CCN([C@H]3C[C@](CC#N)(n4cc(-c5ncnc6[nH]ccc56)cn4)C3)CC2)c1` [Example 141, {trans-3-[4-({6-chloro-4-[(dimethylamino)methyl]pyridin-2-yl}oxy)piperidin-1-yl]-1-[4-(7H-pyrrolo[2,3-d]pyrimidin-4-yl)-1H-pyrazol-1-yl]cyclobutyl}acetonitrile], for which the IC50 (against JAK2 (a.a. 828-1132); in experiment [1]) was < 10 nM each time.

As to `CN(C)Cc1cc(OC2CCN([C@H]3C[C@](CC#N)(n4cc(-c5ncnc6[nH]ccc56)cn4)C3)CC2)nc(C(F)(F)F)n1` [Example 142, {trans-3-(4-{[6-[(dimethylamino)methyl]-2-(trifluoromethyl)pyrimidin-4-yl]oxy}piperidin-1-yl)-1-[4-(7H-pyrrolo[2,3-d]pyrimidin-4-yl)-1H-pyrazol-1-yl]cyclobutyl}acetonitrile], the IC50 is > 100 nM against JAK2 (a.a. 828-1132) and 10 to 25 nM in experiment [1].
